Patent US9637481B2 (RALEXAR THERAPEUTICS, INC., priority 2012, dated 2017)

target: T1, human LXRβ (AA 153-461) LBD (Homo sapiens, UniProt P55055); assay: Gal4 LXRβ cotransfection assay (LXRβ Gal fusion assay); type: cell-based; conditions: HEK 293 cells, Gal4-responsive luciferase reporter, compounds 0.01-10 μM
T1 construct: pM human LXRβ (AA 153-461) LBD plasmid; expressed in transfected cells; host or cells: HEK 293
T1 sequence (P55055 153-460 limits assumed): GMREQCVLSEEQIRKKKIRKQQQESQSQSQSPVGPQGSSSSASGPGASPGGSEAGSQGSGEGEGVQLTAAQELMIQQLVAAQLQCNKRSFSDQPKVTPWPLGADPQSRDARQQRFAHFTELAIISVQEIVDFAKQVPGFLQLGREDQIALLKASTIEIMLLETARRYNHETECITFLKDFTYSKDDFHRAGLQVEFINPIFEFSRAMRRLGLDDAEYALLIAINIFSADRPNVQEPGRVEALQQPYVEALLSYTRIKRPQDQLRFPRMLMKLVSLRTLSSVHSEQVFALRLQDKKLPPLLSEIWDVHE
Protocol: For transient transfection of HEK 293 cells, 6×10^3 cells were plated into 96-well dishes. Each well was transfected with 25 ng 5×UAS-luciferase reporter (pG5luc) and 25 ng of pM human LXRβ (AA 153-461) LBD plasmid using Fugene 6 reagent (Roche; Indianapolis, Ind.). The chimeric protein was assessed for the ability to transactivate a Gal4-responsive luciferase reporter plasmid in a concentration-responsive manner to compounds (0.01-10 μM). Luciferase activity at each dose concentration was measured in triplicate using standard substrate reagents (BD Biosciences; San Diego, Calif.). Data are expressed as relative light units and are shown below in Table 1.

Row | EC50 | Compound
1 | < 1 µM | CCOC(=O)Cn1nc(C(F)(F)F)cc1-c1ccc(-c2cccc(S(C)(=O)=O)c2)cc1 [Compound 36, ethyl 2-(5-(3′-(methylsulfonyl)-[1,1′-biphenyl]-4-yl)-3-(trifluoromethyl)-1H-pyrazol-1-yl)acetate]
2 | > 10 µM | COC(=O)Cn1nc(C(F)(F)F)cc1-c1ccc(-c2cccc(S(C)(=O)=O)c2)s1 [Compound 18, methyl 2-(5-(5-(3-(methylsulfonyl)phenyl)thiophen-2-yl)-3-(trifluoromethyl)-1H-pyrazol-1-yl)acetic acid]
3 | < 1 µM | COC(=O)c1cc(-c2nnc(-c3cccc(S(C)(=O)=O)c3)o2)n(-c2ccccc2Cl)n1 [Compound 11, methyl 1-(2-chlorophenyl)-5-(5-(3-(methylsulfonyl)phenyl)-1,3,4-oxadiazol-2-yl)-1H-pyrazole-3-carboxylate]
4 | 1 to 10 µM | COC(=O)c1cc(-c2nnc(-c3cccc(S(C)(=O)=O)c3)s2)n(-c2ccccc2Cl)n1 [Compound 9, methyl 1-(2-chlorophenyl)-5-(5-(3-(methylsulfonyl)phenyl)-1,3,4-thiadiazol-2-yl)-1H-pyrazole-3-carboxylate]
5 | > 10 µM | CS(=O)(=O)c1cccc(-c2nnc(-c3cc(C(=O)O)nn3-c3ccccc3Cl)s2)c1 [Compound 10, 1-(2-chlorophenyl)-5-(5-(3-(methylsulfonyl)phenyl)-1,3,4-thiadiazol-2-yl)-1H-pyrazole-3-carboxylic acid]
6 | > 10 µM | CS(=O)(=O)c1cccc(-c2nnc(-c3cc(C(=O)O)nn3-c3ccccc3Cl)o2)c1 [Compound 12, 1-(2-chlorophenyl)-5-(5-(3-(methylsulfonyl)phenyl)-1,3,4-oxadiazol-2-yl)-1H-pyrazole-3-carboxylic acid]

Further lines, the compound ahead of its results:

Row | Compound | EC50
7 | CCOC(=O)Cn1nc(C(F)(F)F)cc1-c1ccc(-c2ccc(CO)c(S(C)(=O)=O)c2)s1 [Compound 50, ethyl 2-(5-(5-(4-(hydroxymethyl)-3-(methylsulfonyl)phenyl)thiophen-2-yl)-3-(trifluoromethyl)-1H-pyrazol-1-yl)acetate] | < 1 µM
8 | CS(=O)(=O)c1cccc(-c2ccc(-c3cc(C(F)(F)F)nn3CC(=O)OCCl)s2)c1 [Compound 52, chloromethyl 2-(5-(5-(3-(methylsulfonyl)phenyl)thiophen-2-yl)-3-(trifluoromethyl)-1H-pyrazol-1-yl)acetate] | < 1 µM
9 | CS(=O)(=O)c1cccc(-c2ccc(-c3cc(C(F)(F)F)nn3CC(=O)O)cc2)c1 [Compound 38, 2-(5-(3′-(methylsulfonyl)-[1,1′-biphenyl]-4-yl)-3-(trifluoromethyl)-1H-pyrazol-1-yl)acetic acid] | > 10 µM
10 | CCOC(=O)Cn1nc(C(F)(F)F)cc1-c1ccc(-c2cccc(S(C)(=O)=O)c2)s1 [Compound 16, ethyl 2-(5-(5-(3-(methylsulfonyl)phenyl)thiophen-2-yl)-3-(trifluoromethyl)-1H-pyrazol-1-yl)acetate] | < 1 µM
11 | CSCOC(=O)Cn1nc(C(F)(F)F)cc1-c1ccc(-c2cccc(S(C)(=O)=O)c2)cc1 [Compound 41, methylthiomethyl 2-(5-(3′-(methylsulfonyl)biphenyl-4-yl)-3-(trifluoromethyl)-1H-pyrazol-1-yl)acetate] | 1 to 10 µM
12 | CCOC(=O)Cn1nc(C(F)(F)F)cc1-c1ccc(-c2ccc(CO)c(S(C)(=O)=O)c2)cc1 [Compound 51, ethyl 2-(5-(4′-(hydroxymethyl)-3′-(methylsulfonyl)biphenyl-4-yl)-3-(trifluoromethyl)-1H-pyrazol-1-yl)acetate] | < 1 µM
13 | CC(C)OC(=O)Cn1nc(C(F)(F)F)cc1-c1ccc(-c2cccc(S(C)(=O)=O)c2)s1 [Compound 49] | < 1 µM
